Laboratory results from patent publication US12370167B2, “Blood-brain barrier permeability regulator and use thereof” (ZHEJIANG UNIVERSITY, priority 2019, dated 2025).

What was measured:
[1] = test system: blood-brain barrier permeability; test: Brain distribution of DiR-labelled Angiopep-2-modified glycolipid nano-delivery system after SC79 in in situ glioma model; type: in vivo, BABL/c nude mice; details: SC79 5 mg/kg tail vein 24 hours before the DiR-labelled system; brain taken after 4 hours; vs tumor-bearing control group
Method: FIG. 12: Regulation of increase in the blood-brain barrier permeability and enhancement of distribution of Angiopep-2-modified glycolipid nano-delivery system in the brain by SC79. SC79 was injected into tail veins of tumor-bearing animals at an administration dose of 5 mg/kg. After 24 hours, the Angiopep-2-modified glycolipid nano-delivery system encapsulated with near-infrared fluorescent probe DiR was injected into tail veins. After 4 hours, the intact brain of the nude mice was taken by cardiac perfusion.
Male BABL/c nude mice (20+2 g) were used as the model animals. U87-luci glioma cells expressing luciferase were inoculated in the striatum area of nude mice at a concentration of 5×10^5 cells/5 μL by means of a brain stereotaxic instrument (inoculation coordinates, 0.8 mm on the anterior side of bregma, 2 mm on the right side, and 3 mm in depth), to construct an in situ glioma model. SC79 diluted with 0.2% injection grade Tween 80 solution was injected into tail veins at an administration dose of 5 mg/kg. After 24 hours, the Angiopep-2-modified glycolipid nano-delivery system encapsulated with near-infrared fluorescent probe DiR was injected into tail veins. After 4 hours, the intact brain of the nude mice was taken by cardiac perfusion. […]

[2] = test system: brain microvascular endothelial cells bEnd.3; test: FITC-dextran transport across physiological blood-brain barrier Transwell model; type: cell-based; details: SC79 0, 5, 10 μg/mL; 24 hours, then FITC-dextran 10 kDa for 4 hours
Method: FIG. 7: In vitro dose-dependent influence of SC79 on the efficiency of transportation of FITC-dextran cross the blood-brain barrier. A Transwell model of brain microvascular endothelial cells bEnd.3 was used to mimic the physiological blood-brain barrier. SC79 at different concentrations (0, 5 μg/mL, 10 μg/mL) was applied to the Transwell chamber. After 24 hours, the Transwell chamber and the outer chamber were washed with PBS. A solution of FITC-dextran in HBSS was added to the Transwell chamber for an action of 4 hours.
Brain microvascular endothelial cells bEnd.3 were used as model cells of a blood-brain barrier. 0.5 mL suspension of well-grown bEnd.3 cells was inoculated in the chamber of a 12-well Transwell plate with a pore size of 0.4 μm at a cell density of 1×10^5/well. 1.5 mL of fresh culture medium was supplemented in the outer chamber. The culture medium was refreshed every other day. Incubation was continued for 15 days at 37° C. and 5% CO2. […]
A protein kinase B activator SC79 at different concentrations ([…], 10 μg/mL) was added into the Transwell chamber in the model of physiological blood-brain barrier. […] After the cells were incubated at 37° C. in the dark for 4 hours, the concentration of FITC-dextran transferred to the outer chamber via the Transwell chamber was detected with a fluorescence spectrophotometer.

Structure (SMILES): CCOC(=O)C1=C(N)Oc2ccc(Cl)cc2C1C(C#N)C(=O)OCC (centres unmarked) [SC79]
- distribution of Angiopep-2-modified glycolipid nano-delivery system in the brain [1]: increased
- blood-brain barrier permeability (FITC-dextran in outer chamber) [2]: increase the blood-brain barrier permeability
